The experiment has as its target T1, E. coli SASX38 strain having pBAtPX-RC with Arabidopsis thaliana resistant type protoporphyrinogen oxidase cDNA (Arabidopsis thaliana, UniProt P55826, A220V).
T1 construct: expressed in transfected cells; host or cells: E. coli SASX38 (hemG-deficient) carrying pBAtPX-RC (pBluescript SK(-))
Description: Growth inhibition of E. coli SASX38 (liquid culture with shaking). It counts as cell-based. The procedure: The E. coli SASX38 strain containing either of the above-described two kinds of plasmid was cultured with shaking in LB liquid medium containing 50 μg/ml of ampicillin at 28° C. for overnight.

These results are taken from patent publication US6905852B1, “Herbicide-resistant protoporphyrinogen oxidase isolated from Nicotiana tabacum” (Nihon Nohyaku Co., Ltd., priority 1997, dated 2005).

T1 sequence (P55826 35-537 A220V): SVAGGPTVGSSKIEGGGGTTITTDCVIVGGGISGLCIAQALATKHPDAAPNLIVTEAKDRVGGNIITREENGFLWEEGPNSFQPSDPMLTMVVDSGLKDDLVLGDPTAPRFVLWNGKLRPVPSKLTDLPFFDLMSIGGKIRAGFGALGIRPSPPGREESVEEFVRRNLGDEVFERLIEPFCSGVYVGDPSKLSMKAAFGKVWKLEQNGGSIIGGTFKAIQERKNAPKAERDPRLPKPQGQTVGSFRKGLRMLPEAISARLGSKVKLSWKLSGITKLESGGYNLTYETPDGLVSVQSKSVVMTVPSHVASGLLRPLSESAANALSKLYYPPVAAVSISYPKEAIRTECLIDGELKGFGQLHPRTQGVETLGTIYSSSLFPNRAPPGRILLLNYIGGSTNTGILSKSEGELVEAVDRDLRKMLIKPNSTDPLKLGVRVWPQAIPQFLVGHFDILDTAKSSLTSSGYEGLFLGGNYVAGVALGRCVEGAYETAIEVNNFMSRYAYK

`CCOC(=O)COc1cc(-c2nn(C)c(OC(F)F)c2Cl)c(F)cc1Cl` [Compound A, ethyl 2-chloro-5-(4-chloro-5-difluoromethoxy-1-methyl-1H-pyrazol-3-yl)-4-fluorophenoxyacetate] showed an IC50 of 1500 nM. For the setting “Arabidopsis thaliana”, the “R/S ratio (IC50 value of the resistant type/IC50 value of the wild type)” value was “about 300”.

As usually defined, the IC50 is the concentration that inhibits the measured activity by half. A low value points to inhibition by little substance.
